Measurements reported in ChEMBL document CHEMBL1649565, “Besifloxacin, a novel fluoroquinolone, has broad-spectrum in vitro activity against aerobic and anaerobic bacteria” (Antimicrob Agents Chemother, 2009).
Activity calls are given as the source filed them.

Assays:
Klebsiella aerogenes [1] = assay: Antibacterial activity against Enterobacter aerogenes by CLSI M7-A7 method; type: functional
Enterococcus faecium = assay: Antibacterial activity against vancomycin- resistant Enterococcus faecium by CLSI M100-S18 method; type: functional
Haemophilus influenzae [2] = assay: Antibacterial activity against ciprofloxacin-susceptible Haemophilus influenzae by CLSI M7-A7 method; type: functional
Pseudomonas aeruginosa [3] = assay: Antibacterial activity against ciprofloxacin-susceptible Pseudomonas aeruginosa by CLSI M7-A7 method; type: functional
Enterobacter cloacae [4] = assay: Antibacterial activity against Enterobacter cloacae assessed as percent susceptible isolates by CLSI M7-A7 method; type: functional
Enterobacter cloacae [5] = assay: Antibacterial activity against Enterobacter cloacae by CLSI M7-A7 method; type: functional
[6] = test system: Staphylococcus lugdunensis; assay: Antibacterial activity against Staphylococcus lugdunensis assessed as percent susceptible isolates by CLSI M100-S18 method; type: functional
Haemophilus influenzae [7] = assay: Antibacterial activity against non-ciprofloxacin-susceptible Haemophilus influenzae assessed as percent susceptible isolates by CLSI M7-A7 method; type: functional
Klebsiella aerogenes [8] = assay: Antibacterial activity against Enterobacter aerogenes assessed as percent susceptible isolates by CLSI M7-A7 method; type: functional
Serratia marcescens = assay: Antibacterial activity against Serratia marcescens by CLSI M7-A7 method; type: functional
Citrobacter freundii [9] = assay: Antibacterial activity against Citrobacter freundii assessed as percent susceptible isolates by CLSI M7-A7 method; type: functional
Streptococcus pneumoniae = assay: Antibacterial activity against levofloxacin-susceptible Streptococcus pneumoniae by CLSI M100-S18 method; type: functional
[10] = test system: Acinetobacter calcoaceticus; assay: Antibacterial activity against Acinetobacter calcoaceticus by CLSI M7-A7 method; type: functional
Streptococcus sanguinis = assay: Antibacterial activity against Streptococcus sanguinis by CLSI M100-S18 method; type: functional
[11] = test system: Streptococcus constellatus; assay: Antibacterial activity against Streptococcus constellatus by CLSI M100-S18 method; type: functional
Streptococcus pyogenes = assay: Antibacterial activity against Streptococcus pyogenes by CLSI M100-S18 method; type: functional
[12] = test system: Staphylococcus haemolyticus; assay: Antibacterial activity against Staphylococcus haemolyticus by CLSI M100-S18 method; type: functional
[13] = test system: Streptococcus intermedius; assay: Antibacterial activity against Streptococcus intermedius by CLSI M100-S18 method; type: functional
Streptococcus equinus = assay: Antibacterial activity against Streptococcus bovis by CLSI M100-S18 method; type: functional
[14] = test system: Staphylococcus epidermidis; assay: Antibacterial activity against ciprofloxacin-susceptible and methicillin-resistant Staphylococcus epidermidis by CLSI M100-S18 method; type: functional
Haemophilus influenzae [15] = assay: Antibacterial activity against non-ciprofloxacin-susceptible Haemophilus influenzae by CLSI M7-A7 method; type: functional
[16] = test system: Staphylococcus epidermidis
Listeria monocytogenes = assay: Antibacterial activity against Listeria monocytogenes by CLSI M100-S18 method; type: functional
Streptococcus mitis = assay: Antibacterial activity against Streptococcus mitis by CLSI M100-S18 method; type: functional
[17] = test system: Staphylococcus lugdunensis; assay: Antibacterial activity against Staphylococcus lugdunensis by CLSI M100-S18 method; type: functional
Citrobacter freundii [18] = assay: Antibacterial activity against Citrobacter freundii by CLSI M7-A7 method; type: functional
Klebsiella oxytoca = assay: Antibacterial activity against Klebsiella oxytoca by CLSI M7-A7 method; type: functional
Staphylococcus aureus [19] = assay: Antibacterial activity against non-ciprofloxacin-susceptible and methicillin-susceptible Staphylococcus aureus by CLSI M100-S18 method; type: functional
Klebsiella pneumoniae = assay: Antibacterial activity against Klebsiella pneumoniae by CLSI M7-A7 method; type: functional
Streptococcus anginosus = assay: Antibacterial activity against Streptococcus anginosus by CLSI M100-S18 method; type: functional
Staphylococcus aureus [20] = assay: Antibacterial activity against non-ciprofloxacin-susceptible and methicillin-susceptible Staphylococcus aureus assessed as percent susceptible isolates by CLSI M100-S18 method; type: functional
Proteus vulgaris = assay: Antibacterial activity against Proteus vulgaris assessed as percent susceptible isolates by CLSI M7-A7 method; type: functional
Staphylococcus hominis [21] = assay: Antibacterial activity against Staphylococcus hominis by CLSI M100-S18 method; type: functional
[22] = test system: Staphylococcus epidermidis; remark: listed apart in the source
Enterococcus faecalis = assay: Antibacterial activity against vancomycin- resistant Enterococcus faecalis by CLSI M100-S18 method; type: functional
[23] = Antibacterial activity against Lancefield Streptococcus sp. 'group G' by CLSI M100-S18 method; type: functional
Pseudomonas aeruginosa [24] = assay: Antibacterial activity against non-ciprofloxacin-susceptible Pseudomonas aeruginosa by CLSI M7-A7 method; type: functional
Acinetobacter lwoffii = assay: Antibacterial activity against Acinetobacter lwoffii by CLSI M7-A7 method; type: functional
Citrobacter koseri = assay: Antibacterial activity against Citrobacter koseri by CLSI M7-A7 method; type: functional
Staphylococcus warneri = assay: Antibacterial activity against Staphylococcus warneri by CLSI M100-S18 method; type: functional
Acinetobacter baumannii = assay: Antibacterial activity against Acinetobacter baumannii by CLSI M7-A7 method; type: functional
[25] = test system: Staphylococcus haemolyticus; assay: Antibacterial activity against Staphylococcus haemolyticus assessed as percent susceptible isolates by CLSI M100-S18 method; type: functional
Staphylococcus hominis [26] = assay: Antibacterial activity against Staphylococcus hominis assessed as percent susceptible isolates by CLSI M100-S18 method; type: functional
[27] = test system: Stenotrophomonas maltophilia; assay: Antibacterial activity against levofloxacin-susceptible Stenotrophomonas maltophilia by CLSI M7-A7 method; type: functional
[28] = test system: Stenotrophomonas maltophilia; assay: Antibacterial activity against non-levofloxacin susceptible Stenotrophomonas maltophilia by CLSI M7-A7 method; type: functional
Legionella pneumophila = assay: Antibacterial activity against Legionella pneumophila by CLSI M7-A7 method; type: functional
[29] = test system: Staphylococcus saprophyticus; assay: Antibacterial activity against Staphylococcus saprophyticus assessed as percent susceptible isolates by CLSI M100-S18 method; type: functional

N[C@@H]1CCCCN(c2c(F)cc3c(=O)c(C(=O)O)cn(C4CC4)c3c2Cl)C1 [BESIFLOXACIN]
1 µg/mL: MIC50 (Pseudomonas aeruginosa [3]) | MIC90 (Serratia marcescens) | MIC90 [12] | MIC90 (Klebsiella oxytoca) | MIC90 (Staphylococcus hominis [21]) | MIC90 (Staphylococcus warneri) | MIC [27]
0.5 µg/mL: MIC50 [10] | MIC50 [12] | MIC90 [17] | MIC50 (Staphylococcus aureus [19])
8 µg/mL: MIC90 (Klebsiella aerogenes [1]) | MIC90 (Enterococcus faecium)
0.015 µg/mL: MIC50 (Haemophilus influenzae [2])
0.03 µg/mL: MIC90 (Haemophilus influenzae [2]) | MIC50 (Streptococcus pneumoniae) | MIC (Streptococcus pyogenes) | MIC50 (Streptococcus pyogenes) | MIC50 [14] | MIC50 [23] | MIC50 (Legionella pneumophila) | MIC90 (Legionella pneumophila)
2 µg/mL: MIC50 (Enterococcus faecium) | MIC90 (Enterobacter cloacae [5]) | MIC50 (Haemophilus influenzae [15]) | MIC90 (Haemophilus influenzae [15]) | MIC90 (Enterococcus faecalis)
inactive: Activity (Enterobacter cloacae [4]) | Activity [6] | Activity (Haemophilus influenzae [7]) | Activity (Klebsiella aerogenes [8]) | Activity (Citrobacter freundii [9]) | MIC90 [16] | Activity (Staphylococcus aureus [20]) | Activity (Proteus vulgaris) | MIC90 [22] | Activity [25] | Activity (Staphylococcus hominis [26]) | Activity [29]
0.25 µg/mL: MIC50 (Klebsiella aerogenes [1]) | MIC50 (Serratia marcescens) | MIC50 (Citrobacter freundii [18]) | MIC50 (Klebsiella pneumoniae) | MIC50 (Staphylococcus hominis [21]) | MIC50 (Acinetobacter lwoffii) | MIC90 (Citrobacter koseri) | MIC [28]
4 µg/mL: MIC90 (Pseudomonas aeruginosa [3]) | MIC90 (Citrobacter freundii [18]) | MIC90 (Staphylococcus aureus [19]) | MIC90 (Klebsiella pneumoniae)
64 µg/mL: MIC90 (Pseudomonas aeruginosa [24])
0.06 µg/mL: MIC90 (Streptococcus pneumoniae) | MIC50 (Streptococcus sanguinis) | MIC50 [11] | MIC90 (Streptococcus pyogenes) | MIC50 [13] | MIC50 (Streptococcus equinus) | MIC50 (Streptococcus mitis) | MIC50 [17] | MIC50 (Streptococcus anginosus) | MIC90 [23] | MIC50 (Citrobacter koseri) | MIC50 (Staphylococcus warneri)
32 µg/mL: MIC90 (Acinetobacter baumannii)
16 µg/mL: MIC90 [10] | MIC50 (Pseudomonas aeruginosa [24]) | MIC90 (Acinetobacter lwoffii) | MIC50 (Acinetobacter baumannii)
0.12 µg/mL: MIC50 (Enterobacter cloacae [5]) | MIC90 (Streptococcus sanguinis) | MIC90 [11] | MIC90 [13] | MIC90 (Streptococcus equinus) | MIC50 (Listeria monocytogenes) | MIC90 (Listeria monocytogenes) | MIC90 (Streptococcus mitis) | MIC50 (Klebsiella oxytoca) | MIC90 (Streptococcus anginosus) | MIC50 (Enterococcus faecalis)

NC[C@H]1O[C@H](O[C@H]2[C@H](O)[C@@H](O[C@H]3O[C@H](CO)[C@@H](O)[C@H](N)[C@H]3O)[C@H](N)C[C@@H]2N)[C@H](N)C[C@@H]1O [TOBRAMYCIN]
100%: Activity (Enterobacter cloacae [4]) | Activity (Klebsiella aerogenes [8]) | Activity (Proteus vulgaris)
16 µg/mL: MIC90 (Streptococcus pneumoniae) | MIC50 (Streptococcus pyogenes) | MIC90 (Streptococcus pyogenes) | MIC50 (Streptococcus anginosus) | MIC50 (Staphylococcus hominis [21]) | MIC50 (Enterococcus faecalis)
0.25 µg/mL: MIC50 (Enterobacter cloacae [5]) | MIC50 [10] | MIC50 (Citrobacter freundii [18]) | MIC50 (Klebsiella pneumoniae)
16%: Activity (Staphylococcus hominis [26])
> 8 µg/mL: MIC90 (Streptococcus sanguinis) | MIC90 [11] | MIC90 [13] | MIC90 (Streptococcus equinus) | MIC90 (Streptococcus mitis) | MIC90 [23] | MIC90 (Pseudomonas aeruginosa [24]) | MIC [28]
26.7%: Activity [25]
46.7%: Activity [6]
0.5 µg/mL: MIC50 (Klebsiella aerogenes [1]) | MIC50 (Serratia marcescens) | MIC90 (Citrobacter freundii [18]) | MIC50 (Klebsiella oxytoca) | MIC90 (Acinetobacter lwoffii) | MIC50 (Citrobacter koseri)
54.5%: Activity [29]
8 µg/mL: MIC90 (Klebsiella aerogenes [1]) | MIC90 (Haemophilus influenzae [2]) | MIC50 (Streptococcus pneumoniae) | MIC90 (Haemophilus influenzae [15]) | MIC50 (Pseudomonas aeruginosa [24]) | MIC90 (Staphylococcus warneri)
> 128 µg/mL: MIC50 (Enterococcus faecium) | MIC90 (Enterococcus faecium) | MIC90 (Enterococcus faecalis)
2 µg/mL: MIC50 (Haemophilus influenzae [2]) | MIC50 (Pseudomonas aeruginosa [3]) | MIC90 (Pseudomonas aeruginosa [3]) | MIC50 [12] | MIC [27]
0.06 µg/mL: MIC50 (Streptococcus sanguinis) | MIC50 [11] | MIC50 [13] | MIC50 (Streptococcus equinus) | MIC50 (Streptococcus mitis) | MIC50 [23] | MIC50 (Acinetobacter lwoffii) | MIC50 (Staphylococcus warneri)
32 µg/mL: MIC90 [12] | MIC90 [17] | MIC90 (Streptococcus anginosus) | MIC90 (Staphylococcus hominis [21])
27.3%: Activity (Staphylococcus aureus [20])
> 64 µg/mL: MIC90 (Acinetobacter baumannii)
> 32 µg/mL: MIC90 (Staphylococcus aureus [19])
0.03 µg/mL: MIC50 [14]
0.12 µg/mL: MIC50 (Listeria monocytogenes) | MIC90 (Listeria monocytogenes) | MIC50 [17] | MIC50 (Legionella pneumophila)
1 µg/mL: MIC90 (Enterobacter cloacae [5]) | MIC90 (Serratia marcescens) | MIC90 [10] | MIC90 (Klebsiella oxytoca) | MIC50 (Staphylococcus aureus [19]) | MIC90 (Klebsiella pneumoniae) | MIC90 (Citrobacter koseri) | MIC90 (Legionella pneumophila)
99%: Activity (Citrobacter freundii [9])
4 µg/mL: MIC50 (Haemophilus influenzae [15]) | MIC50 (Acinetobacter baumannii)
inactive: Activity (Haemophilus influenzae [7]) | MIC90 [16] | MIC90 [22]
